Entries after “also recorded” stand apart in the source; their conditions may differ.
Experiments:
[1] = test system: WNT protein; assay: Mouse hair follicle culture, WNT protein immunostaining; format: cell-based; settings: 5 days culture, FIG. 13c
[2] = test system: β-catenin; assay: Western blot of β-catenin in HaCaT keratinocytes; format: cell-based; settings: FIG. 6a; for expression level of β-catenin: 5 hr, single treatment; for β-catenin expression in the presence of DKK-1: treatment with both DKK-1 and peptide
Protocol: (§1) HaCaT kerationcytes cultured for 48 hr were incubated with the peptides synthesized in preparation Example 1 for 5 hr. The expression level of β-catenin was examined, which is an essential signal molecule to promote hair growth as a representative signaling of WNT protein. The amount of β-catenin was measured by Western blot analysis using an antibody against β-catenin (SantaCruz, USA). In addition, it was observed by an immunohistochemical assay using the same whether β-catenin is translocated into a nucleus. […] Besides, […] activities were also observed in cytosol as β-catenin is still present in cytosol (FIG. 6b).

[3] = test system: β-catenin; assay: Mouse hair follicle culture, β-catenin immunostaining; format: cell-based; settings: 5 days culture, FIG. 13b
[4] = test system: Ki-67 protein; assay: Mouse hair follicle culture, Ki-67 immunostaining; format: cell-based; settings: 5 days culture, FIG. 13d
[5] = test system: fibronectin; assay: Fibronectin ELISA in NIH3T3 fibroblasts; format: cell-based; settings: NIH3T3, FIG. 9b
Protocol: To verify whether the peptides synthesized in preparation Example 1 enhances the expression of fibronectin as a WNT target protein, NIH3T3 fibroblasts (4×10^3 cells) was added to each well of 96-well plates and cultured under 5% CO2 for 24 hr at 37° C. After 24-hr culture, the medium was changed with a fresh medium without serum and cells were treated with empty sample (for normalization), three peptides synthesized (1 μg/ml) and peptide complex (1 μg/ml) aseptically dissolved in 10% DMSO for 3 hr, 10 hr, 24 hr or 48 hr under the same conditions as described above. After 72 hr incubation, the cell culture was collected and the expression level of fibronectin was measured using Fibronectin ELISA kit (R&D systems, USA).

[6] = test system: Hair follicle of Balb/C mouse; assay: Mouse hair follicle culture, H&E staining; format: cell-based; settings: 5 days culture, FIG. 13a
Protocol: Hair follicle of Balb/C mouse hair was dissected with a surgical mess and washed with ethanol, followed by additionally washing with PBS and DMEM culture solution. Hereafter, hair follicles were incubated with 5 μg/ml of each peptide complex dissolved in DMEM culture solution, and cultured under 5% CO2 for 5 days at 37° C. After 5 days-culture, hair follicles were prepared as a paraffin block and each tissue treated with control, peptide complex, DKK-1, and DKK-1 and peptide complex was stained and compared using H&E staining (FIGS. 13a-13d).

[7] = test system: HaCaT kerationcytes; assay: SRB colorimetric assay of cell growth in HaCaT keratinocytes; format: cell-based; settings: 72 hr
Protocol: (§2) In order to evaluate three peptides prepared in Preparation Examples 1-2 whether they have similar activities of growth factor, SRB (Sulforhodamine B; Sigma-Aldrich) colorimetric assay was carried out using HaCaT kerationcytes (Korean Cell Line Bank) and NIH3T3 fibroblasts (Korean Cell Line Bank) according to Rizzino et al. method (Rizzino, et al. Cancer Res., 48: 4266 (1988)).
(§3) HaCaT ketatinocytes and NIH3T3 fibroblasts were cultured in 250 ml-flasks containing EMEM (Eagle's minimal essential media; Gibco, USA) supplemented with 10% FBS (fetal bovine serum; Sigma). Cells cultured were treated with 1% trypsin solution to detach cells from the bottom of culture flasks and centrifuged to collect cell pellets. After cells were resuspended in EMEM not containing FBS, its aliquot (3×10^3 cells) was added to each well of 96-well plates and cultured under 5% CO2 for 24 hr at 37° C. After 24-hr culture, the medium was changed with a fresh medium without serum and cells were incubated with empty sample (for normalization), three peptides synthesized (1 ng/ml, 10 ng/ml, 100 ng/ml, 1 μg/ml and 10 μg/ml) and peptide complex (1 μg/ml) aseptically dissolved in 10% DMSO for 72 hr under the same conditions as described above. […] In addition, absorbance at 590 nm was measured to analyze cell viability. […]

[8] = test system: NIH3T3 fibroblasts; assay: SRB colorimetric assay of cell growth in NIH3T3 fibroblasts; format: cell-based
Protocol: as §2, §3

[9] = test system: C57BL/6 mouse; assay: Mouse hair growth, topical nanosome on back skin; format: in vivo; settings: twice every day
Description: The peptide synthesized in Preparation Example 1 was formulated into nanosome. Afterwards, the back of C57BL/6 mouse was partially removed and then the skin was topically administered with the nanosome twice every day for 15 days.

[10] = test system: Ki-67 protein; assay: Ki-67 immunostaining (cell proliferation marker) in keratinocytes; format: cell-based; settings: FIG. 4
[11] = test system: β-catenin; assay: Immunohistochemical assay of β-catenin translocation into nucleus in HaCaT keratinocytes; format: cell-based; settings: FIG. 6b
Protocol: as §1

expression of Ki-67 protein in hair follicle, single treatment [4] | Substance | expression of WNT protein in hair follicle, single treatment [1] | expression level of β-catenin ([2]; FIG. 8) | expression of β-catenin in hair follicle, single treatment [3] | fibronectin expression, DKK-1 alone [5] | hair follicles (H&E), single treatment [6] | proliferation and cell shape under a microscope, keratinocytes ([7]; FIG. 3) | growth of keratinocytes ([7]; HaCaT, 1 ng/ml to 10 μg/ml, FIG. 2a) | expression level of β-catenin ([2]; FIG. 8, listed as the present peptide) | β-catenin expression in the presence of DKK-1 [2] | β-catenin expression in the presence of DKK-1 ([2]; listed as the present peptide) | proliferation and cell shape under a microscope, fibroblasts ([8]; 72 hr, FIG. 3) | growth of fibroblasts ([8]; NIH3T3, 72 hr, 1 ng/ml to 10 μg/ml, FIG. 2b) | hair growth on mouse back skin at 9 days-treatment ([9]; C57BL/6) | amount of hair in mouse back skin at 15 days-treatment compared with control group ([9]; C57BL/6, FIG. 12) | expression level of fibronectin in treatment with both DKK-1 and peptide ([5]; listed as the present peptide) | expression of Ki-67 protein in keratinocytes [10] | translocation of β-catenin to nucleus / β-catenin activity by immunostaining [11] | translocation of β-catenin to nucleus / β-catenin activity by immunostaining ([11]; listed as the present peptide)
suppressed | DKK-1: a WNT inhibitor and a β-catenin signaling inhibitor, hair loss gene | inhibited | reduced | inhibited | inhibited | degenerated | – | – | – | – | – | – | – | – | – | – | – | – | –
– | H-RQTRVQRCHC-OH (cysteine pairing not given here) [the peptide of the present invention] | – | significantly elevated | – | – | – | promotes proliferation of keratinocytes and fibroblasts, and changes their morphological shapes | notably increases the growth of keratinocytes | enhancement of β-catenin expression; also recorded: induces elevated activity of β-catenin | β-catenin activity is observed | re-increase of the expression of β-catenin; also recorded: restored and enhanced | promotes proliferation of keratinocytes and fibroblasts, and changes their morphological shapes | notably increases the growth | growing hair was observed | much significantly enhanced | restored and enhanced; also recorded: recovered | remarkably enhanced | elevated activity of β-catenin | contributes to translocation of β-catenin from cytosol to nucleus

From US8497241B2, “WNT10-derived peptide and use thereof” (Caregen Co., Ltd., priority 2009, dated 2013)
